These results are taken from ChEMBL document CHEMBL4406798, “A novel finding of nalbuphine-6-glucuronide, an active opiate metabolite, possessing potent antinociceptive effects: Synthesis and biological evaluation” (2019).

For test [1], the system named is Rattus norvegicus. In words: Antinociceptive activity in Sprague-Dawley rat model of paw mechanical allodynia assessed as reduction in paw pressure by measuring AUC (0 to t) of paw pressure test at 1 mg/kg administered as intra-cisternal injection by Randall-Selitto test. Type of test: functional, organism-based.
Test [2] deals with Rattus norvegicus. In words: Antinociceptive activity in Sprague-Dawley rat model of paw mechanical allodynia assessed as maximum possible analgesia at 1 mg/kg administered as intra-cisternal injection by Randall-Selitto test relative to control. Type of test: functional.
For test [3], the system named is Rattus norvegicus. Kind of test: Antinociceptive activity in Sprague-Dawley rat model of thermal-induced nociception assessed as reduction in tail-flick response by measuring AUC (0 to t) of tail flick test at 1 mg/kg administered as intra-cisternal injection measured over 2.5 hrs by cold-ethanol tail-flick test. Set-up: dose 1 mg/kg, time < 2.5 hr. Format: functional, organism-based. For orientation: Hot-plate and tail-flick tests time the reaction to a heat stimulus.

Test [4] concerns Rattus norvegicus. In words: Antinociceptive activity in Sprague-Dawley rat model of thermal-induced nociception assessed as duration above 50% maximum possible analgesia at 1 mg/kg administered as intra-cisternal injection measured over 2.5 hrs by cold-ethanol tail-flick test. Format: functional.
Test [5] concerns Rattus norvegicus. In words: Antinociceptive activity in Sprague-Dawley rat model of thermal-induced nociception assessed as maximum possible analgesia at 1 mg/kg administered as intra-cisternal injection measured over 2.5 hrs by cold-ethanol tail-flick test relative to control. Type of test: functional.
Test [6] deals with Rattus norvegicus. In words: Antinociceptive activity in Sprague-Dawley rat model of paw mechanical allodynia assessed as reduction in paw pressure by measuring AUC (0 to t) of paw pressure test at 50 mg/kg, ip by Randall-Selitto test. Format: functional, organism-based.
Test [7] has as its system Rattus norvegicus. In words: Antinociceptive activity in Sprague-Dawley rat model of paw mechanical allodynia assessed as maximum possible analgesia at 50 mg/kg, ip by Randall-Selitto test relative to control. Format: functional.
The test system of test [8] is Rattus norvegicus. In words: Antinociceptive activity in Sprague-Dawley rat model of thermal-induced nociception assessed as reduction in tail-flick response by measuring AUC (0 to t) of tail flick test at 50 mg/kg, ip measured over 2.5 hrs by cold-ethanol tail-flick test. Type of test: functional, organism-based. Set-up: time < 2.5 hr, dose 50 mg/kg.
Test [9] concerns Rattus norvegicus. Kind of test: Antinociceptive activity in Sprague-Dawley rat model of thermal-induced nociception assessed as maximum possible analgesia at 50 mg/kg, ip measured over 2.5 hrs by cold-ethanol tail-flick test relative to control. Type of test: functional.
Test [10] relates to Rattus norvegicus. Kind of test: Antinociceptive activity in Sprague-Dawley rat model of paw mechanical allodynia assessed as duration above 50% maximum possible analgesia at 1 mg/kg administered as intra-cisternal injection by Randall-Selitto test. Type of test: functional.
In test [11] the test system is Rattus norvegicus. Kind of test: Antinociceptive activity in Sprague-Dawley rat model of paw mechanical allodynia assessed as duration above 50% maximum possible analgesia at 50 mg/kg, ip by Randall-Selitto test. Type of test: functional.
Test [12] has as its system Rattus norvegicus. In words: Antinociceptive activity in Sprague-Dawley rat model of thermal-induced nociception assessed as duration above 50% maximum possible analgesia at 50 mg/kg, ip measured over 2.5 hrs by cold-ethanol tail-flick test. Type of test: functional.
For test [13], the species on record is Rattus norvegicus. In words: Ratio of AUC for test compound to AUC for nalbuphine for antinociceptive activity in Sprague-Dawley rat model by Randall-Selitto test. Format: functional.
The species named for test [14] is Rattus norvegicus. In words: Ratio of AUC for test compound to AUC for nalbuphine for antinociceptive activity in Sprague-Dawley rat model by cold-ethanol tail-flick test. Format: functional.

In the case of `O=C(O)[C@H]1O[C@@H](Oc2ccc3c4c2O[C@H]2[C@@H](O)CC[C@@]5(O)[C@@H](C3)N(CC3CCC3)CC[C@]425)[C@H](O)[C@@H](O)[C@@H]1O`, the AUC amounted to 23.5 g·h in the test with Rattus norvegicus [1], 5.4 hr.sec with Rattus norvegicus [3], 73.4 g·h with Rattus norvegicus [6] and 5.8 hr.sec in the test on Rattus norvegicus [8]. The Activity with Rattus norvegicus [2] was determined as 7.3%; in the test on Rattus norvegicus [5], 22.3%; with Rattus norvegicus [7], 17.7%; in the test on Rattus norvegicus [9], 19.3%. Also, the Time in the test on Rattus norvegicus [4] amounted to 1.36 h.
In the case of `Oc1ccc2c3c1O[C@H]1[C@@H](O)CC[C@@]4(O)[C@@H](C2)N(CC2CCC2)CC[C@]314` [NALBUPHINE], the AUC with Rattus norvegicus [1] worked out at 176 g·h; in the test with Rattus norvegicus [3], 11.3 hr.sec; with Rattus norvegicus [6], 169 g·h; with Rattus norvegicus [8] it was 16.9 hr.sec. Moreover, the Time was determined as 0.13 h with Rattus norvegicus [10], 0.07 h in the test on Rattus norvegicus [4], 0.1 h with Rattus norvegicus [11] and 0.15 h with Rattus norvegicus [12]. Also, the Activity was found to be 48% in the test on Rattus norvegicus [2], 38.4% in the test with Rattus norvegicus [5], 37.9% with Rattus norvegicus [7] and 43.6% with Rattus norvegicus [9].
For `O=C(O)[C@H]1O[C@@H](O[C@H]2CC[C@@]3(O)[C@H]4Cc5ccc(O)c6c5[C@@]3(CCN4CC3CCC3)[C@H]2O6)[C@H](O)[C@@H](O)[C@@H]1O`, the AUC is 510 g·h in the test with Rattus norvegicus [1], 40.3 hr.sec with Rattus norvegicus [3], 158 g·h in the test with Rattus norvegicus [6] and 5.4 hr.sec with Rattus norvegicus [8]. For the same compound, the Time in the test with Rattus norvegicus [10] worked out at 91 h. For the same compound, the Activity in the test with Rattus norvegicus [2] is 95.1%; in the test on Rattus norvegicus [5], 96.5%; in the test on Rattus norvegicus [7], 29.6%; in the test on Rattus norvegicus [9], 22.7%. The Ratio in the test listed under Rattus norvegicus [13] is listed as 2.8; in the test filed under Rattus norvegicus [14] it was 3.5.
